Reference: BindingDB's records for doi:10.3109/14756366.2011.555944 (Aristotle University of Thessaloniki, 2011)

Target: T1, Seed linoleate 13S-lipoxygenase-1 (Glycine max, UniProt P08170)
T1 sequence (P08170 whole entry): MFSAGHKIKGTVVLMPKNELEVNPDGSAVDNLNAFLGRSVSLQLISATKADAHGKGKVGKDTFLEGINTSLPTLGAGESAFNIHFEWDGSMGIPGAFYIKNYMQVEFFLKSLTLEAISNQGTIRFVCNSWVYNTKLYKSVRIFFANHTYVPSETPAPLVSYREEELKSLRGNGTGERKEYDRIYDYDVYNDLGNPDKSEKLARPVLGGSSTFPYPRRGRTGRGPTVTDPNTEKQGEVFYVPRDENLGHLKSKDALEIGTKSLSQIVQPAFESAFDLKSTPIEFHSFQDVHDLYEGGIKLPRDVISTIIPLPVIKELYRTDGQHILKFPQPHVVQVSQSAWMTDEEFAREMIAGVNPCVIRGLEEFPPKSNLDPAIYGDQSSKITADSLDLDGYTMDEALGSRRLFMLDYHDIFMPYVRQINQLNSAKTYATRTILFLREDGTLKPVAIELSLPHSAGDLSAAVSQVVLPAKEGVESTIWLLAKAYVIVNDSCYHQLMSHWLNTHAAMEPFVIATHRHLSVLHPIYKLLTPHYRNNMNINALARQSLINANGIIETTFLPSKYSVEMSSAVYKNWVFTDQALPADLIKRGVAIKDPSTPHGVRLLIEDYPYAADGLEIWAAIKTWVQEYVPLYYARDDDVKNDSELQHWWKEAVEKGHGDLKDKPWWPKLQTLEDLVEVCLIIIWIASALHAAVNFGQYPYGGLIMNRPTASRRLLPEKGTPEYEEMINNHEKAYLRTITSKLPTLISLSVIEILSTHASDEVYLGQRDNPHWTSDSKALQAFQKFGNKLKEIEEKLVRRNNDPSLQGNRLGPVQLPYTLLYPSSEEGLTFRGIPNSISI
Assay: In Vitro LOX Inhibition Assay
Settings: 25 °C

| SMILES | IC50 |
| --- | --- |
| O=c1ccc2ccc3c(c2o1)CC=CCO3 [8,11-Dihydro-2H-oxepino[2,3-h]chromen-2-one (7a)] | 310 µM |
| Cc1cc(=O)oc2c3c(ccc12)OCC=CC3 [4-Methyl-8,11-dihydro-2H-oxepino[2,3-h]chromen-2-one (7b)] | 180 µM |
